In patent publication US20230236206A1, “PREDICTING A SEPSIS CONDITION” (PHARM-ANALYT LABOR GMBH, priority 2020, published 2023):

Assay: Hydrophilicity of BM1
Type: physicochemical

Hydrophilicity: very hydrophilic
SMILES: C[C@@H](O)[C@H](NC(=O)Nc1ncnc2c1ncn2[C@@H]1O[C@H](CO)C(O)C1O)C(=O)O (stereo partly drawn) [BM1, N6-Carbamoylthreonyl-D-adenosine]
